# Test results reported in US9833497B2, “Human originated EGF domain proteins and use of the same” (CHENGDU SOURCEBIO LIMITED-LIABILITY COMPANY, priority 2013, dated 2017).
# Columns and labels:
# Format in all cases: cell-based
# Aeromonas hydrophila = assay: MIC against Gram-negative bacteria: Aeromonas hydrophila; conditions: 5×10^5 CFU/mL; for MIC A. hydrophila: two-fold serial dilution
# How it was run: (§1)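 MIC, the lowest recombinant protein concentration giving no bacterial growth, found by two-fold serial dilution of human EGF-domain proteins in triplicate. Inoculum 5×10^5 CFU/mL in LB from cultures at McFarland 0.5; plates incubated at 37° C, 175 rpm shaking.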
# E. coli BL21 = assay: MIC against Gram-negative bacteria: E. coli BL21; conditions: 5×10^5 CFU/mL; for MIC E. coli BL21: two-fold serial dilution
# How it was run: as §1
# Serratia marcescens = assay: MIC against Gram-negative bacteria: Serratia marcescens; conditions: 5×10^5 CFU/mL; for MIC S. marcescens: two-fold serial dilution
# How it was run: as §1
# E. coli DH5α = assay: Antibacterial activity: MIC and growth curve against E. coli DH5α in 96-well plate; conditions: minimal inhibitory concentration against E. coli DH5α; 96-well plate, 5×10^5 CFU/mL, 37° C., judged after 8 h
# How it was run: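 Log-phase bacteria (OD600 ~0.5) resuspended in LB at 5×10^5 CFU/mL, exposed to recombinant protein at 50, 25, 12.5 μg/mL final in triplicate, 37 °C shaking at 175 rpm. OD600 read every 30 min; MIC is lowest concentration showing no growth.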
# Klebsiella pneumonia = assay: MIC against Gram-negative bacteria: Klebsiella pneumonia; conditions: 5×10^5 CFU/mL; for MIC K. pneumonia: two-fold serial dilution
# How it was run: as §1
# Pseudomonas aeruginosa = assay: MIC against Gram-negative bacteria: Pseudomonas aeruginosa; conditions: 5×10^5 CFU/mL; for MIC P. aeruginosa: two-fold serial dilution
# How it was run: as §1
# Enterobacter cloacae = assay: MIC against Gram-negative bacteria: Enterobacter cloacae; conditions: 5×10^5 CFU/mL; for MIC E. cloacae: two-fold serial dilution
# How it was run: as §1
# Citrobacter diversus = assay: MIC against Gram-negative bacteria: Citrobacter diversus; conditions: 5×10^5 CFU/mL; for MIC C. diversus: two-fold serial dilution
# How it was run: as §1
# Proteus mirabilis = assay: MIC against Gram-negative bacteria: Proteus mirabilis; conditions: 5×10^5 CFU/mL; for MIC P. mirabilis: two-fold serial dilution
# How it was run: as §1
# Moraxella catarrhalis = assay: MIC against Gram-negative bacteria: Moraxella catarrhalis; conditions: 5×10^5 CFU/mL; for MIC M. catarrhalis: two-fold serial dilution
# How it was run: as §1
# Proteus vulgaris = assay: MIC against Gram-negative bacteria: Proteus vulgaris; conditions: 5×10^5 CFU/mL; for MIC P. vulgaris: two-fold serial dilution
# How it was run: as §1
# [1] = Aeromonas hydrophila, 96-well plate, 37° C., 10 h
# [2] = E. coli BL21, 96-well plate, 37° C., 10 h
# [3] = Serratia marcescens, 96-well plate, 37° C., 10 h
# [4] = Klebsiella pneumonia, 96-well plate, 37° C., 10 h
# [5] = Pseudomonas aeruginosa, 96-well plate, 37° C., 10 h
# [6] = Enterobacter cloacae, 96-well plate, 37° C., 10 h
# [7] = Citrobacter diversus, 96-well plate, 37° C., 10 h
# [8] = Proteus mirabilis, 96-well plate, 37° C., 10 h
# [9] = Moraxella catarrhalis, 96-well plate, 37° C., 10 h
# [10] = Proteus vulgaris, 96-well plate, 37° C., 10 h
substance,measurement,setting,value
PRT806 (FGFQCSQHCDCHNGGQCSPTTGACECEPGYKGPRCQ; listed as Homo sapiens),MIC (μg/mL) A. hydrophila,"Aeromonas hydrophila; A. hydrophila, 10 h cultivation at 37° C.",12.5 µg/mL
same,MIC (μg/mL) E. coli BL21,"E. coli BL21; E. coli BL21, 10 h cultivation at 37° C.",25 µg/mL
same,MIC (μg/mL) S. marcescens,"Serratia marcescens; S. marcescens, 10 h cultivation at 37° C.",25 µg/mL
same,MIC,E. coli DH5α,12.5 µg/mL
same,MIC (μg/mL) K. pneumonia,"Klebsiella pneumonia; K. pneumonia, 10 h cultivation at 37° C.",12.5 µg/mL
same,MIC (μg/mL) P. aeruginosa,"Pseudomonas aeruginosa; P. aeruginosa, 10 h cultivation at 37° C.",12.5 µg/mL
same,MIC (μg/mL) E. cloacae,"Enterobacter cloacae; E. cloacae, 10 h cultivation at 37° C.",12.5 µg/mL
same,MIC (μg/mL) C. diversus,"Citrobacter diversus; C. diversus, 10 h cultivation at 37° C.",12.5 µg/mL
same,MIC (μg/mL) P. mirabilis,"Proteus mirabilis; P. mirabilis, 10 h cultivation at 37° C.",12.5 µg/mL
same,MIC (μg/mL) M. catarrhalis,"Moraxella catarrhalis; M. catarrhalis, 10 h cultivation at 37° C.",25 µg/mL
same,MIC (μg/mL) P. vulgaris,"Proteus vulgaris; P. vulgaris, 10 h cultivation at 37° C.",25 µg/mL
PRT79 (LPDPCDSNPCPANSYCSNDWDSYSCSCDPGYYGDNC; listed as Homo sapiens),MIC (μg/mL) A. hydrophila,Aeromonas hydrophila; [1],25 µg/mL
same,MIC (μg/mL) E. coli BL21,E. coli BL21; [2],25 µg/mL
same,MIC (μg/mL) S. marcescens,Serratia marcescens; [3],50 µg/mL
same,MIC,E. coli DH5α,50 µg/mL
same,MIC (μg/mL) K. pneumonia,Klebsiella pneumonia; [4],25 µg/mL
same,MIC (μg/mL) P. aeruginosa,Pseudomonas aeruginosa; [5],12.5 µg/mL
same,MIC (μg/mL) E. cloacae,Enterobacter cloacae; [6],12.5 µg/mL
same,MIC (μg/mL) C. diversus,Citrobacter diversus; [7],12.5 µg/mL
same,MIC (μg/mL) P. mirabilis,Proteus mirabilis; [8],50 µg/mL
same,MIC (μg/mL) M. catarrhalis,Moraxella catarrhalis; [9],12.5 µg/mL
same,MIC (μg/mL) P. vulgaris,Proteus vulgaris; [10],12.5 µg/mL
PRT573 (CPCPDGPDSGRQFARSCYQDPVTLQLACVCDPGYIGSRCDDCASGYFGNPSEVGGSCQP; listed as Homo sapiens),MIC against A. hydrophila,"Aeromonas hydrophila; 96-well plate, 37° C., 10 h",12.5 µg/mL
same,MIC against E. coli BL21,"E. coli BL21; 96-well plate, 37° C., 10 h",12.5 µg/mL
same,MIC against S. marcescens,"Serratia marcescens; 96-well plate, 37° C., 10 h",12.5 µg/mL
same,MIC,E. coli DH5α,25 µg/mL
same,MIC against K. pneumonia,"Klebsiella pneumonia; 96-well plate, 37° C., 10 h",12.5 µg/mL
same,MIC against P. aeruginosa,"Pseudomonas aeruginosa; 96-well plate, 37° C., 10 h",25 µg/mL
same,MIC against E. cloacae,"Enterobacter cloacae; 96-well plate, 37° C., 10 h",25 µg/mL
same,MIC against C. diversus,"Citrobacter diversus; 96-well plate, 37° C., 10 h",12.5 µg/mL
same,MIC against P. mirabilis,"Proteus mirabilis; 96-well plate, 37° C., 10 h",12.5 µg/mL
same,MIC against M. catarrhalis,"Moraxella catarrhalis; 96-well plate, 37° C., 10 h",50 µg/mL
same,MIC against P. vulgaris,"Proteus vulgaris; 96-well plate, 37° C., 10 h",50 µg/mL
PRT1087 (HEEPCGPSHKSFCLNGGLCYVIPTIPSPFCRCVENYTGARCE; listed as Homo sapiens),MIC A. hydrophila,Aeromonas hydrophila; 10 h cultivation at 37° C.,12.5 µg/mL
same,MIC E. coli BL21,E. coli BL21; 10 h cultivation at 37° C.,12.5 µg/mL
same,MIC S. marcescens,Serratia marcescens; 10 h cultivation at 37° C.,25 µg/mL
same,MIC,E. coli DH5α,50 µg/mL
same,MIC K. pneumonia,Klebsiella pneumonia; 10 h cultivation at 37° C.,50 µg/mL
same,MIC P. aeruginosa,Pseudomonas aeruginosa; 10 h cultivation at 37° C.,50 µg/mL
same,MIC E. cloacae,Enterobacter cloacae; 10 h cultivation at 37° C.,50 µg/mL
same,MIC C. diversus,Citrobacter diversus; 10 h cultivation at 37° C.,25 µg/mL
same,MIC P. mirabilis,Proteus mirabilis; 10 h cultivation at 37° C.,25 µg/mL
same,MIC M. catarrhalis,Moraxella catarrhalis; 10 h cultivation at 37° C.,50 µg/mL
same,MIC P. vulgaris,Proteus vulgaris; 10 h cultivation at 37° C.,25 µg/mL
PRT1315 (FGPDCQSVCSCVHGVCNHGPRGDGSCLCFAGYTGPHCD; listed as Homo sapiens),MIC against A. hydrophila,Aeromonas hydrophila; [1],12.5 µg/mL
same,MIC against E. coli BL21,E. coli BL21; [2],12.5 µg/mL
same,MIC against S. marcescens,Serratia marcescens; [3],12.5 µg/mL
same,MIC,E. coli DH5α,25 µg/mL
same,MIC against K. pneumonia,Klebsiella pneumonia; [4],100 µg/mL
same,MIC against P. aeruginosa,Pseudomonas aeruginosa; [5],12.5 µg/mL
same,MIC against E. cloacae,Enterobacter cloacae; [6],25 µg/mL
same,MIC against C. diversus,Citrobacter diversus; [7],12.5 µg/mL
same,MIC against P. mirabilis,Proteus mirabilis; [8],12.5 µg/mL
same,MIC against M. catarrhalis,Moraxella catarrhalis; [9],50 µg/mL
same,MIC against P. vulgaris,Proteus vulgaris; [10],50 µg/mL
PRT1218 (DINECEREECENGGSCVNVFGSFLCNCTPGYVGQYCG; listed as Homo sapiens),MIC against A. hydrophila,Aeromonas hydrophila; [1],12.5 µg/mL
same,MIC against E. coli BL21,E. coli BL21; [2],25 µg/mL
same,MIC against S. marcescens,Serratia marcescens; [3],25 µg/mL
same,MIC,E. coli DH5α,12.5 µg/mL
same,MIC against K. pneumonia,Klebsiella pneumonia; [4],12.5 µg/mL
same,MIC against P. aeruginosa,Pseudomonas aeruginosa; [5],25 µg/mL
same,MIC against E. cloacae,Enterobacter cloacae; [6],12.5 µg/mL
same,MIC against C. diversus,Citrobacter diversus; [7],25 µg/mL
same,MIC against P. mirabilis,Proteus mirabilis; [8],12.5 µg/mL
same,MIC against M. catarrhalis,Moraxella catarrhalis; [9],12.5 µg/mL
same,MIC against P. vulgaris,Proteus vulgaris; [10],12.5 µg/mL
PRT1136 (KQQFCQESLSSEFCSGHGKCLSEAWSKTYSCHCQPPFSGKYCQ; listed as Homo sapiens),MIC A. hydrophila,Aeromonas hydrophila; 10 h cultivation at 37° C.,12.5 µg/mL
same,MIC E. coli BL21,E. coli BL21; 10 h cultivation at 37° C.,12.5 µg/mL
same,MIC S. marcescens,Serratia marcescens; 10 h cultivation at 37° C.,12.5 µg/mL
same,MIC,E. coli DH5α,50 µg/mL
same,MIC K. pneumonia,Klebsiella pneumonia; 10 h cultivation at 37° C.,12.5 µg/mL
same,MIC P. aeruginosa,Pseudomonas aeruginosa; 10 h cultivation at 37° C.,50 µg/mL
same,MIC E. cloacae,Enterobacter cloacae; 10 h cultivation at 37° C.,50 µg/mL
same,MIC C. diversus,Citrobacter diversus; 10 h cultivation at 37° C.,50 µg/mL
same,MIC P. mirabilis,Proteus mirabilis; 10 h cultivation at 37° C.,25 µg/mL
same,MIC M. catarrhalis,Moraxella catarrhalis; 10 h cultivation at 37° C.,12.5 µg/mL
same,MIC P. vulgaris,Proteus vulgaris; 10 h cultivation at 37° C.,50 µg/mL
